Patent US20250186541A1, “DLL3 TARGETING PEPTIDES AND CONSTRUCTS THEREOF” (MARIANA ONCOLOGY INC., priority 2023, published 2025)
Numbered stars: 1 amine (or outer) side, 2 acyl side, 3 side chain; on linkers, the order of the positions; unused ones are H or OH. Bridge positions count the residues as written; N and C are the ends. Square brackets hold non-standard residues; d marks the D form. Peptide text beside a SMILES is read from it. * marks the point of attachment. Ala(piperidin-4-yl) = O=C([C@H](CC1CCN([*:3])CC1)N[*:1])[*:2]; DOTA = O=C(O)CN1CCN(CC(=O)O)CCN(CC(=O)*)CCN(CC(=O)O)CC1; Phe(4-CH2NH2) = NCc1ccc(C[C@H](N)C(=O)O)cc1; 1Nal = N[C@@H](Cc1cccc2ccccc12)C(=O)O; 2Nal = N[C@@H](Cc1ccc2ccccc2c1)C(=O)O; NMetBuAla = CN[C@@H](CC(C)(C)C)C(=O)O; Gly(4-THP) = N[C@H](C(=O)O)C1CCOCC1; tBuAla = CC(C)(C)C[C@H](N)C(=O)O; αMeD = C[C@](N)(CC(=O)O)C(=O)O; AllylGly = C=CC[C@H](N)C(=O)O; Chg = N[C@H](C(=O)O)C1CCCCC1; αMeP = C[C@@]1(C(=O)O)CCCN1; Nle = CCCC[C@H](N)C(=O)O

These compounds were tested against T1, human DLL3 (Homo sapiens, UniProt Q9NYJ7) (assay: Affinity determination by Surface Plasmon Resonance (SPR), Biacore, 1:1 binding model). Details: biotinylated human DLL3 on streptavidin chip, 25° C.; NB = nonbinding.
T1 construct: biotin (biotinylated)
T1 sequence (Q9NYJ7 27-618): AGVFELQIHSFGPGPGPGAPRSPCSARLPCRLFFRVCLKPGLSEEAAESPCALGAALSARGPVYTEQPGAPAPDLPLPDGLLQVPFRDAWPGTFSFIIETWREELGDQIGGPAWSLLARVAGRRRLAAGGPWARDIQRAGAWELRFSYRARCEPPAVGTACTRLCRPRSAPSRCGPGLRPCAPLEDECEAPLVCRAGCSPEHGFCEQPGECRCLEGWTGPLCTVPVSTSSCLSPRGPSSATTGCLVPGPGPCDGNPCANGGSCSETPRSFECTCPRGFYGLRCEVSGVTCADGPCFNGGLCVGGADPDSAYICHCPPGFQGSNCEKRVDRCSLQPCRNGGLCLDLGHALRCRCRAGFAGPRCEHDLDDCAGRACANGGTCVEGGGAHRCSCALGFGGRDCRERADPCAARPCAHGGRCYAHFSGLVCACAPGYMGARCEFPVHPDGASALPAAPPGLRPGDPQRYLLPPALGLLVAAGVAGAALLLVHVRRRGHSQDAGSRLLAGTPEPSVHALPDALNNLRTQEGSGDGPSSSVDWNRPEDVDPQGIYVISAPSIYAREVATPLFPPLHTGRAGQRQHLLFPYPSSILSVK
Experimental: Example 3. Binding Affinity of Targeting Moieties Polypeptides to DLL3 Affinity Determination by Surface Plasmon Resonance (SPR)
SPR studies were performed on the compounds disclosed herein using the following protocol. […] Biotinylated target ligand human DLL3 was immobilized on a streptavidin sensor chip. A reference surface was set up for nonspecific binding and refractive index changes. For analysis of the kinetics of interactions, varying concentrations of samples were injected at a flow rate of 100 μL/min using running buffer containing 20 mM phosphate buffer with 2.7 mM KCl, 137 mM NaCl, 0.05% Surfactant P20 and 2% DMSO. Sensorgram curves were fitted with 1:1 binding model, and affinity and kinetic parameters were obtained using Biacore Insight evaluation 4.0. software.

Row | Kd | Compound
1 | 15.9 nM | CCCC[C@@H]1NC(=O)[C@H](Cc2c[nH]c3ccccc23)NC(=O)[C@@H](NC(=O)[C@H](CC(=O)O)NC(=O)[C@H](CO)NC(=O)[C@H](CCSC)NC(C)=O)CSSC[C@@H](C(=O)N2CCC[C@H]2C(=O)N[C@@H](Cc2ccccc2)C(=O)N[C@@H](CC(=O)O)C(=O)N[C@H](CCCCNC(=O)CN2CCN(CC(=O)O)CCN(CC(=O)O)CCN(CC(=O)O)CC2)C(N)=O)NC(=O)[C@H](CC(N)=O)NC(=O)[C@H](Cc2c[nH]c3ccccc23)NC(=O)[C@H](CCC(N)=O)NC1=O [compound 68, Ac-M-S-D-C(3)-W-(Nle)-Q-W-N-C(3)-P-F-D-D-Lys(DOTA)-CONH2] (Ac-MSDCW[Nle]QWNCPFD[dK](DOTA)-NH2; disulfide 4-10)
2 | 0.27 nM | CC(=O)N[C@@H](CC1CCNCC1)C(=O)N[C@@H](CO)C(=O)N[C@@](C)(CC(=O)O)C(=O)N[C@H]1C/C=C/C[C@@H](C(=O)N2CCC[C@@]2(C)C(=O)N[C@@H](Cc2ccccc2)C(=O)N[C@@H](CC(=O)O)C(N)=O)NC(=O)[C@H](CC(N)=O)NC(=O)[C@H](Cc2ccc3ccccc3c2)NC(=O)[C@H](Cc2ccc(CNC(=O)CN3CCN(CC(=O)O)CCN(CC(=O)O)CCN(CC(=O)O)CC3)cc2)NC(=O)[C@H](CC(C)(C)C)NC(=O)[C@H](Cc2cccc3ccccc23)NC1=O [compound 194, Ac-[3-(4-piperidinyl)-Ala]-S-(aMe-Asp)-AllyG(4)-(1Nal)-(t-Bu-Ala)-[PAF(DOTA)]-(2Nal)-N-AllyG(4)-(aMe-P)-F-D-CONH2] (Ac-[Ala(piperidin-4-yl)]S[αMeD][AllylGly][1Nal][tBuAla][Phe(4-CH2NH2)](DOTA)[2Nal]N[AllylGly][αMeP]FD-NH2; staple (E) 4-10)
3 | > 100 nM | CSCC[C@H](NC(C)=O)C(=O)N[C@@H](CO)C(=O)N[C@@H](CC(=O)O)C(=O)N[C@H]1CSSC[C@@H](C(=O)N2CCC[C@H]2C(=O)N[C@@H](Cc2ccccc2)C(=O)N[C@@H](CC(=O)O)C(N)=O)NC(=O)[C@H](CC(N)=O)NC(=O)[C@H](Cc2c[nH]c3ccccc23)NC(=O)[C@@H](C)NC(=O)[C@H](CC(C)C)NC(=O)[C@H](Cc2c[nH]c3ccccc23)NC1=O [compound 13, Ac-M-S-D-C(3)-W-L-(D-Ala)-W-N-C(3)-P-F-D-CONH2] (Ac-MSDCWL[dA]WNCPFD-NH2; disulfide 4-10)
4 | > 100 nM | CSCC[C@H](NC(C)=O)C(=O)N[C@@H](C)C(=O)N[C@@H](CC(=O)O)C(=O)N[C@H]1CSSC[C@@H](C(=O)N2CCC[C@H]2C(=O)N[C@@H](Cc2ccccc2)C(=O)N[C@@H](CC(=O)O)C(N)=O)NC(=O)[C@H](CC(N)=O)NC(=O)[C@H](Cc2c[nH]c3ccccc23)NC(=O)[C@H](CCC(N)=O)NC(=O)[C@H](CC(C)C)NC(=O)[C@H](Cc2c[nH]c3ccccc23)NC1=O [compound 20, Ac-M-(L-Ala)-D-C(3)-W-L-Q-W-N-C(3)-P-F-D-CONH2] (Ac-MADCWLQWNCPFD-NH2; disulfide 4-10)

Second part, the compound before the results:

Row | Compound | Kd
5 | CSCC[C@H](NC(C)=O)C(=O)N[C@@H](CO)C(=O)N[C@@H](CC(=O)O)C(=O)N[C@H]1CSSC[C@@H](C(=O)N2CCC[C@H]2C(=O)N[C@H](C)C(=O)N[C@@H](CC(=O)O)C(N)=O)NC(=O)[C@H](CC(N)=O)NC(=O)[C@H](Cc2c[nH]c3ccccc23)NC(=O)[C@H](CCC(N)=O)NC(=O)[C@H](CC(C)C)NC(=O)[C@H](Cc2c[nH]c3ccccc23)NC1=O [compound 17, Ac-M-S-D-C(3)-W-L-Q-W-N-C(3)-P-(D-Ala)-D-CONH2] (Ac-MSDCWLQWNCP[dA]D-NH2; disulfide 4-10) | > 100 nM
6 | CC(=O)N[C@H](C(=O)N[C@@H](CO)C(=O)N[C@@H](CC(=O)O)C(=O)N[C@H]1CSSC[C@@H](C(=O)N2CCC[C@@]2(C)C(=O)N[C@@H](Cc2ccccc2)C(=O)N[C@@H](CC(=O)O)C(=O)N[C@H](CCCCNC(=O)CN2CCN(CC(=O)O)CCN(CC(=O)O)CCN(CC(=O)O)CC2)C(N)=O)NC(=O)[C@H](C2CCOCC2)NC(=O)[C@H](Cc2c[nH]c3ccccc23)NC(=O)[C@H](CCC(N)=O)NC(=O)[C@H](CC(C)C)NC(=O)[C@H](Cc2cccc3ccccc23)NC1=O)C1CCCCC1 [compound 135, Ac-(Chg)-S-D-C(3)-(1Nal)-L-Q-W-(THPG)-C(3)-(aMe-P)-F-D-[D-Lys(DOTA)]-NH2] (Ac-[Chg]SDC[1Nal]LQW[Gly(4-THP)]C[αMeP]FD[dK](DOTA)-NH2; disulfide 4-10) | > 30 nM
7 | CC(=O)N[C@@H](Cc1ccccc1)C(=O)N[C@@H](CO)C(=O)N[C@@H](CC(=O)O)C(=O)N[C@H]1CSSC[C@@H](C(=O)N2CCC[C@H]2C(=O)N[C@@H](Cc2ccccc2)C(=O)N[C@@H](CC(=O)O)C(=O)N[C@H](CCCCNC(=O)CN2CCN(CC(=O)O)CCN(CC(=O)O)CCN(CC(=O)O)CC2)C(N)=O)NC(=O)[C@H](CC(N)=O)NC(=O)[C@H](Cc2c[nH]c3ccccc23)NC(=O)[C@H](CCC(N)=O)NC(=O)[C@H](CC(C)C)NC(=O)[C@H](Cc2c[nH]c3ccccc23)NC1=O [compound 80, Ac-Phe-S-D-C(3)-W-L-Q-W-N-C(3)-P-F-D-D-Lys(DOTA)-CONH2] (Ac-FSDCWLQWNCPFD[dK](DOTA)-NH2; disulfide 4-10) | 10 nM
8 | CC(=O)N[C@H](C)C(=O)N[C@@H](CO)C(=O)N[C@@H](CC(=O)O)C(=O)N[C@H]1CSSC[C@@H](C(=O)N2CCC[C@@]2(C)C(=O)N[C@@H](Cc2ccccc2)C(=O)N[C@@H](CC(=O)O)C(=O)N[C@H](CCCCNC(=O)CN2CCN(CC(=O)O)CCN(CC(=O)O)CCN(CC(=O)O)CC2)C(N)=O)NC(=O)[C@H](CC(N)=O)NC(=O)[C@H](Cc2ccc3ccccc3c2)NC(=O)[C@H](CCC(N)=O)NC(=O)[C@H](CC(C)(C)C)N(C)C(=O)[C@H](Cc2cccc3ccccc23)NC1=O [compound 171, Ac-(D-Ala)-S-D-C(3)-(1Nal)-(NMe-Tba)-Q-(2Nal)-N-C(3)-(aMe-P)-F -D-[D-Lys(DOTA)]-NH2] (Ac-[dA]SDC[1Nal][NMetBuAla]Q[2Nal]NC[αMeP]FD[dK](DOTA)-NH2; disulfide 4-10) | 1.21 nM
9 | CC(=O)N[C@H](CO)C(=O)N[C@@H](CC(=O)O)C(=O)N[C@H]1CSSC[C@@H](C(=O)N2CCC[C@@]2(C)C(=O)N[C@@H](Cc2ccccc2)C(=O)N[C@@H](CC(=O)O)C(=O)N[C@H](CCCCNC(=O)CN2CCN(CC(=O)O)CCN(CC(=O)O)CCN(CC(=O)O)CC2)C(N)=O)NC(=O)[C@H](CC(N)=O)NC(=O)[C@H](Cc2c[nH]c3ccccc23)NC(=O)[C@H](CCC(N)=O)NC(=O)[C@@H](CC(C)C)NC(=O)[C@H](Cc2cccc3ccccc23)NC1=O [compound 139, Ac-(D-Ser)-D-C(3)-(1Nal)-(D-Leu)-Q-W-N-C(3)-(aMe-P)-F-D-D-Lys(DOTA)-CONH2] (Ac-[dS]DC[1Nal][dL]QWNC[αMeP]FD[dK](DOTA)-NH2; disulfide 3-9) | > 30 nM
10 | CSCC[C@H](NC(C)=O)C(=O)N[C@@H](CO)C(=O)N[C@@H](CC(=O)O)C(=O)N[C@H]1CSSC[C@@H](C(=O)N2CCC[C@H]2C(=O)N[C@@H](Cc2ccccc2)C(=O)N[C@@H](CC(=O)O)C(N)=O)NC(=O)[C@H](C)NC(=O)[C@H](Cc2c[nH]c3ccccc23)NC(=O)[C@H](CCC(N)=O)NC(=O)[C@H](CC(C)C)NC(=O)[C@H](Cc2c[nH]c3ccccc23)NC1=O [compound 26, Ac-M-S-D-C(3)-W-L-Q-W-(L-Ala)-C(3)-P-F-D-CONH2] (Ac-MSDCWLQWACPFD-NH2; disulfide 4-10) | > 100 nM
